pEC50: −log10 of the molar value. Read-outs that look alike come from different tables or passages of the source. *1 amine or outer side, *2 acyl side, *3 side chain or, on linkers, in order; H or OH if unused. Where a SMILES comes first, the peptide text is derived from it. Side-chain parts run from the residue outwards. [ ]: non-standard residue; d: D form. The star is where a group is joined. Isobutyryl(2-(3-CN-5-F-Ph)) = CC(C)(C(=O)*)c1cc(F)cc(C#N)c1; C20 diacid = O=C(O)CCCCCCCCCCCCCCCCCCC(=O)*; γGlu = O=C(O)[C@H](CCC(=O)[*:2])N[*:1]; X48 = CC(C)[C@H](C(=O)*)c1ccc(Cl)cc1; X57 = CO[C@@H](CN[*:1])C(=O)[*:2]; AEEA = NCCOCCOCC(=O)O; Aib = CC(C)(N)C(=O)O; CO = O=C([*:1])[*:2]; βAla = NCCC(=O)O; NHPr = CCCN*
Experiments:
Assay type in all cases: cell-based
GLP-1 receptor [1] = target: T1, GLP-1 receptor (Homo sapiens, UniProt P43220); experiment: HitHunter cAMP assay, GLP-1 receptor; details: for Emax: read-out: Emax GLP-1R
T1 sequence (P43220 24-463): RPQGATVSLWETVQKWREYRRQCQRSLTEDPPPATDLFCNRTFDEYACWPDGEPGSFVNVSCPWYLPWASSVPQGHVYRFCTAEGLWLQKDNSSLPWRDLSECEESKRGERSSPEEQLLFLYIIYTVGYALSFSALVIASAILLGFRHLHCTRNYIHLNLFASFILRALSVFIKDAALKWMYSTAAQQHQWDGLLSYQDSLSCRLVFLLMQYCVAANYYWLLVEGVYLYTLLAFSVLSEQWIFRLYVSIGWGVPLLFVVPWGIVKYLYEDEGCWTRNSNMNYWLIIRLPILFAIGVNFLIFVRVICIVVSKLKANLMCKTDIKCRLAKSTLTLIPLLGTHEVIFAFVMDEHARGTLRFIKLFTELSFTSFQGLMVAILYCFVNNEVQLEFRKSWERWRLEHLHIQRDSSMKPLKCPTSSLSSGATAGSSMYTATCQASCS

GIP receptor [2] = target: T2, GIP receptor (Homo sapiens, UniProt P48546); experiment: HitHunter cAMP assay, GIP receptor; details: for Emax: read-out: Emax GIP-1R
T2 sequence (P48546 22-466): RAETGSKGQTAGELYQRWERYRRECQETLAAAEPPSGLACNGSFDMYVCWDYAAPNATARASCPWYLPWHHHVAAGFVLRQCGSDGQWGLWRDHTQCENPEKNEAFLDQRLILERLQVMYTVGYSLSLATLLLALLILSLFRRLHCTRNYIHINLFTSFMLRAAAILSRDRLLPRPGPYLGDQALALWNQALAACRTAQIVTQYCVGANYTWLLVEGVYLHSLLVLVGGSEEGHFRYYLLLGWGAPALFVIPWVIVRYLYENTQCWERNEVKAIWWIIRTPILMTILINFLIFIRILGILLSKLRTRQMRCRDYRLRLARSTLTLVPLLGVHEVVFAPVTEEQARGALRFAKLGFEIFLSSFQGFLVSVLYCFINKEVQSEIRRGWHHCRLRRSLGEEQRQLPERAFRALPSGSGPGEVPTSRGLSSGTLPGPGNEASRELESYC

GIP receptor [3] = target: T2, GIP receptor; experiment: PathHunter β-arrestin assay, GIP receptor; parameters: host or cells: PathHunter CHO-K1 GIPR β-Arrestin Cell Line
GLP-1 receptor [4] = target: T1, GLP-1 receptor; experiment: PathHunter β-arrestin assay, GLP-1 receptor; parameters: host or cells: PathHunter CHO-K1 GLP1R β-Arrestin Cell Line
[5] = CHO cells stably expressing human GLP-1 receptor, cAMP accumulation, 30 min, read-out: EC50 GLP-1R
[6] = CHO cells, cAMP, normalized to maximum signal from GLP-1 (high) and DMSO (low)
[7] = CHO cells stably expressing GIP receptor, cAMP accumulation, 30 min, read-out: EC50 GIP-1R
[8] = CHO cells, cAMP, normalized to maximum signal from GIP (high) and DMSO (low)
[9] = β-arrestin-2 recruitment, PathHunter CHO-K1 GIPR β-Arrestin Cell Line, 90 min at 37° C., normalized to GIP, read-out: GIPR β Arrestin EC50
[10] = β-arrestin-2 recruitment, PathHunter CHO-K1 GLP1R β-Arrestin Cell Line, 90 min at 37° C., normalized to GLP-1, read-out: GLP-1R β Arrestin EC50

| Structure (SMILES) | pEC50 (GLP-1 receptor [1]; [5]) | Emax (GLP-1 receptor [1]; [6]) | pEC50 (GIP receptor [2]; [7]) | Emax (GIP receptor [2]; [8]) | pEC50 (GIP receptor [3]; [9]) | pEC50 (GLP-1 receptor [4]; [10]) | pEC50 (GLP-1 receptor [1]) | Emax (GLP-1 receptor [1]; CHO) | pEC50 (GIP receptor [2]) | Emax (GIP receptor [2]; CHO) | pEC50 (GIP receptor [3]) | pEC50 (GLP-1 receptor [4]) |
| --- | --- | --- | --- | --- | --- | --- | --- | --- | --- | --- | --- | --- |
| CC[C@H](C)[C@H](NC(=O)[C@H](CCCCN)NC(=O)[C@H](CC(=O)O)NC(=O)[C@H](CC(C)C)NC(=O)[C@H](Cc1ccc(O)cc1)NC(=O)[C@@H](NC(=O)[C@H](CO)NC(=O)[C@H](Cc1ccc(O)cc1)NC(=O)[C@H](CC(=O)O)NC(=O)[C@H](CO)NC(=O)[C@@H](NC(=O)[C@H](Cc1ccccc1)NC(=O)[C@@H](NC(=O)CNC(=O)[C@H](CCC(=O)O)NC(=O)CCNC(=O)C(C)(C)c1cc(F)cc(C#N)c1)[C@@H](C)O)[C@@H](C)O)[C@@H](C)CC)C(=O)N[C@@H](C)C(=O)N[C@@H](CCC(N)=O)C(=O)N[C@@H](CCCCNC(=O)COCCOCCNC(=O)COCCOCCNC(=O)CC[C@H](NC(=O)CCCCCCCCCCCCCCCCCCC(=O)O)C(=O)O)C(=O)N[C@@H](C)C(=O)N[C@@H](Cc1ccccc1)C(=O)N[C@H](C(=O)N[C@@H](CCC(N)=O)C(=O)N[C@@H](Cc1c[nH]c2ccccc12)C(=O)N[C@@H](CC(C)C)C(=O)N[C@H](C(=O)N[C@@H](C)C(=O)NCC(=O)NCC(=O)N1CCC[C@H]1C(=O)N[C@@H](CO)C(=O)N[C@@H](CO)C(=O)NCC(=O)N[C@@H](C)C(=O)N1CCC[C@H]1C(=O)N1CCC[C@H]1C(=O)N1CCC[C@H]1C(=O)N[C@@H](CO)C(N)=O)[C@@H](C)CC)C(C)C [Compound 189] ({Isobutyryl(2-(3-CN-5-F-Ph))-βAla}-EGTFTSDYSIYLDKIAQK([AEEA-AEEA-γGlu-C20 diacid])AFVQWLIAGGPSSGAPPPS-NH2) | 9.00 to 10.00 | 95% | 7.00 to 8.00 | 93% | < 6.00 | < 6.00 |  |  |  |  |  |  |
| CC[C@H](C)[C@H](NC(=O)[C@H](CC(C)C)NC(=O)[C@H](Cc1c[nH]c2ccccc12)NC(=O)[C@H](CCC(N)=O)NC(=O)[C@@H](NC(=O)[C@H](Cc1ccccc1)NC(=O)[C@H](C)NC(=O)[C@H](CCCCNC(=O)COCCOCCNC(=O)COCCOCCNC(=O)CC[C@H](NC(=O)CCCCCCCCCCCCCCCCCCC(=O)O)C(=O)O)NC(=O)[C@H](CCC(N)=O)NC(=O)[C@H](C)NC(=O)[C@@H](NC(=O)[C@H](CCCCN)NC(=O)[C@H](CC(=O)O)NC(=O)[C@H](CC(C)C)NC(=O)C(C)(C)NC(=O)[C@@H](NC(=O)[C@H](CO)NC(=O)[C@H](Cc1ccc(O)cc1)NC(=O)[C@H](CC(=O)O)NC(=O)[C@H](CO)NC(=O)[C@@H](NC(=O)[C@H](Cc1ccccc1)NC(=O)[C@@H](NC(=O)CNC(=O)[C@H](CC(=O)O)NC(=O)CCNC(=O)C(C)(C)c1cc(F)cc(C#N)c1)[C@@H](C)O)[C@@H](C)O)[C@@H](C)CC)[C@@H](C)CC)C(C)C)C(=O)N[C@@H](C)C(=O)NCC(=O)NCC(=O)N1CCC[C@H]1C(=O)N[C@@H](CO)C(=O)N[C@@H](CO)C(=O)NCC(=O)N[C@@H](C)C(=O)N1CCC[C@H]1C(=O)N1CCC[C@H]1C(=O)N1CCC[C@H]1C(=O)N[C@@H](CO)C(N)=O [Compound 108] ({Isobutyryl(2-(3-CN-5-F-Ph))-βAla}-DGTFTSDYSI[Aib]LDKIAQK([AEEA-AEEA-γGlu-C20 diacid])AFVQWLIAGGPSSGAPPPS-NH2) | > 10.00 | 93% | 8.00 to 9.00 | 95% | > 6.00 | < 6.00 |  |  |  |  |  |  |
| CC[C@H](C)[C@H](NC(=O)[C@H](CC(C)C)NC(=O)[C@H](Cc1c[nH]c2ccccc12)NC(=O)[C@H](CCC(N)=O)NC(=O)[C@@H](NC(=O)[C@H](Cc1ccccc1)NC(=O)[C@H](C)NC(=O)[C@H](CCCCNC(=O)COCCOCCNC(=O)COCCOCCNC(=O)CC[C@H](NC(=O)CCCCCCCCCCCCCCCCCCC(=O)O)C(=O)O)NC(=O)[C@H](CCC(N)=O)NC(=O)[C@H](C)NC(=O)[C@@H](NC(=O)[C@H](CCCCN)NC(=O)[C@H](CC(=O)O)NC(=O)[C@H](CC(C)C)NC(=O)C(C)(C)NC(=O)[C@@H](NC(=O)[C@H](CO)NC(=O)[C@H](Cc1ccc(O)cc1)NC(=O)[C@H](CC(=O)O)NC(=O)[C@H](CO)NC(=O)[C@@H](NC(=O)[C@H](Cc1ccccc1)NC(=O)[C@@H](NC(=O)CNC(=O)[C@H](CCC(=O)O)NC(=O)[C@H](CNC(=O)C(C)(C)c1cc(F)cc(C#N)c1)OC)[C@@H](C)O)[C@@H](C)O)[C@@H](C)CC)[C@@H](C)CC)C(C)C)C(=O)N[C@@H](C)C(=O)NCC(=O)NCC(=O)N1CCC[C@H]1C(=O)N[C@@H](CO)C(=O)N[C@@H](CO)C(=O)NCC(=O)N[C@@H](C)C(=O)N1CCC[C@H]1C(=O)N1CCC[C@H]1C(=O)N1CCC[C@H]1C(=O)N[C@@H](CO)C(N)=O [Compound 194] ({Isobutyryl(2-(3-CN-5-F-Ph))}-[X57]EGTFTSDYSI[Aib]LDKIAQK([AEEA-AEEA-γGlu-C20 diacid])AFVQWLIAGGPSSGAPPPS-NH2) | 7.00 to 8.00 | 80% | 7.00 to 8.00 | 78% | < 6.00 | < 6.00 |  |  |  |  |  |  |
| CC[C@H](C)[C@H](NC(=O)[C@H](CC(C)C)NC(=O)[C@H](Cc1c[nH]c2ccccc12)NC(=O)[C@H](CCC(N)=O)NC(=O)[C@@H](NC(=O)[C@H](Cc1ccccc1)NC(=O)[C@H](C)NC(=O)[C@H](CCCCNC(=O)COCCOCCNC(=O)COCCOCCNC(=O)CC[C@H](NC(=O)CCCCCCCCCCCCCCCCCCC(=O)O)C(=O)O)NC(=O)[C@H](CCC(N)=O)NC(=O)[C@H](C)NC(=O)[C@@H](NC(=O)[C@H](CCCCN)NC(=O)[C@H](CC(=O)O)NC(=O)[C@H](CC(C)C)NC(=O)C(C)(C)NC(=O)[C@@H](NC(=O)[C@H](CO)NC(=O)[C@H](Cc1ccc(O)cc1)NC(=O)[C@H](CC(=O)O)NC(=O)[C@H](CO)NC(=O)[C@@H](NC(=O)[C@H](Cc1ccccc1)NC(=O)[C@@H](NC(=O)CNC(=O)[C@H](CCC(=O)O)NC(=O)CCNC(=O)[C@H](c1ccc(Cl)cc1)C(C)C)[C@@H](C)O)[C@@H](C)O)[C@@H](C)CC)[C@@H](C)CC)C(C)C)C(=O)N[C@@H](C)C(=O)NCC(=O)NCC(=O)N1CCC[C@H]1C(=O)N[C@@H](CO)C(=O)N[C@@H](CO)C(=O)NCC(=O)N[C@@H](C)C(=O)N1CCC[C@H]1C(=O)N1CCC[C@H]1C(=O)N1CCC[C@H]1C(=O)N[C@@H](CO)C(N)=O [Compound 177] ({X48-βAla}-EGTFTSDYSI[Aib]LDKIAQK([AEEA-AEEA-γGlu-C20 diacid])AFVQWLIAGGPSSGAPPPS-NH2) |  |  |  |  |  |  | 8.00 to 9.00 | 95% | 7.00 to 8.00 | 94% | < 6.00 | < 6.00 |
| CCCNC(=O)NC(C)(C)C(=O)NCCC(=O)N[C@@H](CCC(=O)O)C(=O)NCC(=O)N[C@H](C(=O)N[C@@H](Cc1ccccc1)C(=O)N[C@H](C(=O)N[C@@H](CO)C(=O)N[C@@H](CC(=O)O)C(=O)N[C@@H](Cc1ccc(O)cc1)C(=O)N[C@@H](CO)C(=O)N[C@H](C(=O)NC(C)(C)C(=O)N[C@@H](CC(C)C)C(=O)N[C@@H](CC(=O)O)C(=O)N[C@@H](CCCCN)C(=O)N[C@H](C(=O)N[C@@H](C)C(=O)N[C@@H](CCC(N)=O)C(=O)N[C@@H](CCCCNC(=O)COCCOCCNC(=O)COCCOCCNC(=O)CC[C@H](NC(=O)CCCCCCCCCCCCCCCCCCC(=O)O)C(=O)O)C(=O)N[C@@H](C)C(=O)N[C@@H](Cc1ccccc1)C(=O)N[C@H](C(=O)N[C@@H](CCC(N)=O)C(=O)N[C@@H](Cc1c[nH]c2ccccc12)C(=O)N[C@@H](CC(C)C)C(=O)N[C@H](C(=O)N[C@@H](C)C(=O)NCC(=O)NCC(=O)N1CCC[C@H]1C(=O)N[C@@H](CO)C(=O)N[C@@H](CO)C(=O)NCC(=O)N[C@@H](C)C(=O)N1CCC[C@H]1C(=O)N1CCC[C@H]1C(=O)N1CCC[C@H]1C(=O)N[C@@H](CO)C(N)=O)[C@@H](C)CC)C(C)C)[C@@H](C)CC)[C@@H](C)CC)[C@@H](C)O)[C@@H](C)O [Compound 281] ({NHPr-CO}-[Aib][βAla]EGTFTSDYSI[Aib]LDKIAQK([AEEA-AEEA-γGlu-C20 diacid])AFVQWLIAGGPSSGAPPPS-NH2) | 9.00 to 10.00 | 95% | 8.00 to 9.00 | 108% | < 6.00 | < 6.00 |  |  |  |  |  |  |
